Test results: paper PMC9079729, “Conservation of the conformational dynamics and ligand binding within M49 enzyme family” (RSC Advances, 2018)
Residues, ends and D or L forms follow the SMILES beside them.

Tests used:
hDPP III = target: T1, hDPP III (Homo sapiens, UniProt Q9NY33); assay: biochemical
T1 sequence (Q9NY33 1-737): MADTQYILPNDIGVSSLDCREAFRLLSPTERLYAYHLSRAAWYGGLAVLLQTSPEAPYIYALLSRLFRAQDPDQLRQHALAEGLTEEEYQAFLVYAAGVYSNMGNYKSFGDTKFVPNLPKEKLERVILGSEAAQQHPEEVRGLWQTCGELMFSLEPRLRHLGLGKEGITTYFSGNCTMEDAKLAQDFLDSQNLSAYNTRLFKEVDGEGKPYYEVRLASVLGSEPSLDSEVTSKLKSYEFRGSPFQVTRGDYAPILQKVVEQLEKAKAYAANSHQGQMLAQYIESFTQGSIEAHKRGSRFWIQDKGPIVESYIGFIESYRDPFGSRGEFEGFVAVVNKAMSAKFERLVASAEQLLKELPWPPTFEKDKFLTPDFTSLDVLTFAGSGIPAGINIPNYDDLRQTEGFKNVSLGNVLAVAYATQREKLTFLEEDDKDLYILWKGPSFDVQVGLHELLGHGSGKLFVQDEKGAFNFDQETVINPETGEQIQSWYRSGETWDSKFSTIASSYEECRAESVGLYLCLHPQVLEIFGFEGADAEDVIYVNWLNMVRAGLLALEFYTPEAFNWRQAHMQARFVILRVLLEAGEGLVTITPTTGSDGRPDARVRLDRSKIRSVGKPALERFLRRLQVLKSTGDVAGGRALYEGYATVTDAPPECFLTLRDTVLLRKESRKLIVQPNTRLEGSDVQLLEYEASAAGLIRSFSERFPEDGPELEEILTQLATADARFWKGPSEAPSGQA
Method: (§1) The Km values for hydrolysis of fluorogenic substrate Arg2-2NA were determined at pH 7.4 (20 mM Tris–HCl buffer) and at 25 °C, from the initial reaction rates as previously described.[26]
(§2) Enzyme inhibition studies with tynorphin were performed using the Arg2-2NA as a substrate, according to Baršun et al.[36] The inhibition constant, Ki, was calculated according to the equation:1 Ki = i/(v0/vi − 1)·Km/(Km + s)where v0 and vi are the initial hydrolysis rates of Arg2-2NA (given in concentration s) catalyzed by DPP III in the absence and presence of inhibitor concentration (i), and Km is the Michaelis constant.

CaDPP III = target: T2, CaDPP III (Caldithrix abyssi, UniProt H1XW48); assay: Inhibition of DPP III hydrolysis of Arg2-2NA by tynorphin; format: biochemical; conditions: substrate Arg2-2NA, from initial hydrolysis rates, eq. 1
T2 construct: made in house; host or cells: E. coli
T2 sequence (H1XW48 19-558): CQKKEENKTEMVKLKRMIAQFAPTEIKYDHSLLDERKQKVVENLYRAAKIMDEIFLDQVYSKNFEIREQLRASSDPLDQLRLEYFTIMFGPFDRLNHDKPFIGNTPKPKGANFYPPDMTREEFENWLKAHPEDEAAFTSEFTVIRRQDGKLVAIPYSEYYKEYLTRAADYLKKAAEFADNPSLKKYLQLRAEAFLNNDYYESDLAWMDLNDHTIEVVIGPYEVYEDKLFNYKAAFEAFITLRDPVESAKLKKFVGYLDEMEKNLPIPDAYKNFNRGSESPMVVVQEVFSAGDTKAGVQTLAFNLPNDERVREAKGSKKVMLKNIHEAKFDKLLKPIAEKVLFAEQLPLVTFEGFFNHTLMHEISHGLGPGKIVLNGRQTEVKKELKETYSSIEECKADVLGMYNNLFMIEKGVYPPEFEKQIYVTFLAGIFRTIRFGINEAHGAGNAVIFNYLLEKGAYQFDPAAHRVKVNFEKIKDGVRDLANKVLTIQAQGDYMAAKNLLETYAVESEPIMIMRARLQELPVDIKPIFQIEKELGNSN
Method: as §1, §2

CC(C)[C@H](N)C(=O)N[C@H](C(=O)N[C@@H](Cc1ccc(O)cc1)C(=O)N1CCC[C@H]1C(=O)N[C@@H](Cc1c[nH]c2ccccc12)C(=O)O)C(C)C [tynorphin] (H-VVYPW-OH)
Ki (hDPP III): 0.03 µM | Ki (CaDPP III): 16.8 µM
